# Patent US9738902B2, “Modified PYR/PYL receptors activated by ligands” (priority 2013, dated 2017)
# Assays:
# Format in all cases: cell-based
# PYR1 K59R N167C = target: T1, PYR1 K59R N167C (Arabidopsis thaliana, UniProt O49686, K59R/N167C); assay: Y2H Pocket Library Screen (HAB1, X-gal)
# T1 construct: expressed in transfected cells; host or cells: S. cerevisiae Y190 two-hybrid reporter strain
# Description: (§1) The set of 475 mutant plasmids were individually transformed into the Y190 yeast two hybrid reporter strain co-transformed with pACT-HAB1, as previously described (Park et al., 2009). The yeast strains generated were arrayed into 96-well plates yielding what we refer to as the “pocket library”. The pocket library strains were spotted onto agar plates containing selective synthetic dextrose (minus Leu & Trp) medium that was supplemented with a single test compound at 100 μM. The pocket library strains were separately tested for responsiveness to the following compounds: dichlobenil, benzothiadiazole, mandipropamid, fludioxonil, and benoxacor. After incubating test plates at 30° C. for two days, colonies were chloroform lysed and stained to reveal β-galactosidase expression levels, using previously described methods (Park et al., 2009). Mutants displaying responsiveness to the test compound, if present, were identified by virtue of X-gal staining and then subjected to subsequent optimization efforts. Using this approach we identified mutations that conferred detectable sensitivity to the compounds tested (see entries labeled “Pocket Library Screens” in Table 1).
# PYR1 K59R N167V = target: T2, PYR1 K59R N167V (Arabidopsis thaliana, UniProt O49686, K59R/N167V); assay: Y2H Pocket Library Screen (HAB1, X-gal)
# T2 construct: expressed in transfected cells; host or cells: S. cerevisiae Y190 two-hybrid reporter strain
# Description: as §1
# PYR1 K59R N167H = target: T3, PYR1 K59R N167H (Arabidopsis thaliana, UniProt O49686, K59R/N167H); assay: Y2H Pocket Library Screen (HAB1, X-gal)
# T3 construct: expressed in transfected cells; host or cells: S. cerevisiae Y190 two-hybrid reporter strain
# T3 sequence (O49686 whole entry K59R/N167H): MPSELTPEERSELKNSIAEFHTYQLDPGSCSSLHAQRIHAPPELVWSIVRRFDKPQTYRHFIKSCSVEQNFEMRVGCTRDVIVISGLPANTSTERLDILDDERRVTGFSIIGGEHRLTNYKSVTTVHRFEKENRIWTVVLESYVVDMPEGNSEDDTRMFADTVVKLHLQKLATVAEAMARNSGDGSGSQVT
# T3 sequence (Q9CAJ0 23-511 partner): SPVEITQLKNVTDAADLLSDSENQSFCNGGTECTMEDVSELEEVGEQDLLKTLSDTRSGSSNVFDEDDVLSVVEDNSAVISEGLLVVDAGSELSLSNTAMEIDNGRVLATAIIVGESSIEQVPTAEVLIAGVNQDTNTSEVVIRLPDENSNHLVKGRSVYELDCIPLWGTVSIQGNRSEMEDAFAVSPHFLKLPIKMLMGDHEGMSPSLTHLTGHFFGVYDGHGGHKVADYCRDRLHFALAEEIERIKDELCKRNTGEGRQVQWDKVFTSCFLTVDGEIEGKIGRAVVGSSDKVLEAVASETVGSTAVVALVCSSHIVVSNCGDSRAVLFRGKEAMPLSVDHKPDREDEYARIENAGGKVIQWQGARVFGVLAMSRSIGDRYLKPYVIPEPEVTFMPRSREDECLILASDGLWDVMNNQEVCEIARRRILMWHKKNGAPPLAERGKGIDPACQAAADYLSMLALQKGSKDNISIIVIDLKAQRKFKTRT
# Description: as §1
# PYR1 K59R E94D = target: T4, PYR1 K59R E94D (Arabidopsis thaliana, UniProt O49686, E94D/K59R); assay: Y2H Pocket Library Screen (HAB1, X-gal)
# T4 construct: expressed in transfected cells; host or cells: S. cerevisiae Y190 yeast two-hybrid reporter strain
# Description: as §1
# PYR1 K59R E94A = target: T5, PYR1 K59R E94A (Arabidopsis thaliana, UniProt O49686, E94A/K59R); assay: Y2H Pocket Library Screen (HAB1, X-gal)
# T5 construct: expressed in transfected cells; host or cells: S. cerevisiae Y190 yeast two-hybrid reporter strain
# Description: as §1
# PYR1 K59R V81Y = target: T6, PYR1 K59R V81Y (Arabidopsis thaliana, UniProt O49686, K59R/V81Y); assay: Y2H Pocket Library Screen (HAB1, X-gal)
# T6 construct: expressed in transfected cells; host or cells: S. cerevisiae Y190 yeast two-hybrid reporter strain
# T6 sequence (O49686 whole entry K59R/V81Y): as the sequence (O49686 whole entry K59R/N167H) above, with V81Y, H167N counted along it
# T6 sequence (Q9CAJ0 23-511 partner): as the sequence (Q9CAJ0 23-511 partner) above
# Description: as §1
# PYR1 K59R Y120A = target: T7, PYR1 K59R Y120A (Arabidopsis thaliana, UniProt O49686, K59R/Y120A); assay: Y2H Pocket Library Screen (HAB1, X-gal)
# T7 construct: expressed in transfected cells; host or cells: S. cerevisiae Y190 two-hybrid reporter strain
# Description: as §1
# PYR1 K59R F159V = target: T8, PYR1 K59R F159V (Arabidopsis thaliana, UniProt O49686, F159V/K59R); assay: Y2H Pocket Library Screen (HAB1, X-gal)
# T8 construct: expressed in transfected cells; host or cells: S. cerevisiae Y190
# T8 sequence (O49686 whole entry K59R/F159V): as the sequence (O49686 whole entry K59R/N167H) above, with F159V, H167N counted along it
# T8 sequence (Q9CAJ0 23-511, further chain): as the sequence (Q9CAJ0 23-511 partner) above
# Description: as §1
# PYR1 K59R E141Y = target: T9, PYR1 K59R E141Y (Arabidopsis thaliana, UniProt O49686, E141Y/K59R); assay: Y2H Pocket Library Screen (HAB1, X-gal)
# T9 construct: expressed in transfected cells; host or cells: S. cerevisiae Y190 two-hybrid reporter strain
# Description: as §1
# PYR1 K59R S92F = target: T10, PYR1 K59R S92F (Arabidopsis thaliana, UniProt O49686, K59R/S92F); assay: Y2H Pocket Library Screen (HAB1, X-gal)
# T10 construct: expressed in transfected cells; host or cells: S. cerevisiae Y190 yeast two-hybrid reporter strain
# T10 sequence (O49686 whole entry K59R/S92F): as the sequence (O49686 whole entry K59R/N167H) above, with S92F, H167N counted along it
# T10 sequence (Q9CAJ0 23-511 partner): as the sequence (Q9CAJ0 23-511 partner) above
# Description: as §1
# PYR1 K59R V81I = target: T11, PYR1 K59R V81I (Arabidopsis thaliana, UniProt O49686, K59R/V81I); assay: Y2H Pocket Library Screen (HAB1, X-gal)
# T11 construct: expressed in transfected cells; host or cells: S. cerevisiae Y190 yeast two-hybrid reporter strain
# Description: as §1
# PYR1 K59R A160C = target: T12, PYR1 K59R A160C (Arabidopsis thaliana, UniProt O49686, A160C/K59R); assay: Y2H Pocket Library Screen (HAB1, X-gal)
# T12 construct: expressed in transfected cells; host or cells: S. cerevisiae Y190
# Description: as §1
# PYR1 K59R L87F = target: T13, PYR1 K59R L87F (Arabidopsis thaliana, UniProt O49686, K59R/L87F); assay: Y2H Pocket Library Screen (HAB1, X-gal)
# T13 construct: expressed in transfected cells; host or cells: S. cerevisiae Y190 yeast two-hybrid reporter strain
# Description: as §1
# PYR1 K59R F159T = target: T14, PYR1 K59R F159T (Arabidopsis thaliana, UniProt O49686, F159T/K59R); assay: Y2H Pocket Library Screen (HAB1, X-gal)
# T14 construct: expressed in transfected cells; host or cells: S. cerevisiae Y190
# Description: as §1
# PYR1 K59R M158V = target: T15, PYR1 K59R M158V (Arabidopsis thaliana, UniProt O49686, K59R/M158V); assay: Y2H Pocket Library Screen (HAB1, X-gal)
# T15 construct: expressed in transfected cells; host or cells: S. cerevisiae Y190 two-hybrid reporter strain
# T15 sequence (O49686 whole entry K59R/M158V): as the sequence (O49686 whole entry K59R/N167H) above, with M158V, H167N counted along it
# T15 sequence (Q9CAJ0 23-511, further chain): as the sequence (Q9CAJ0 23-511 partner) above
# Description: as §1
# PYR1 K59R F159A = target: T16, PYR1 K59R F159A (Arabidopsis thaliana, UniProt O49686, F159A/K59R); assay: Y2H Pocket Library Screen (HAB1, X-gal)
# T16 construct: expressed in transfected cells; host or cells: S. cerevisiae Y190 two-hybrid reporter strain
# Description: as §1
# PYR1 K59R F108L = target: T17, PYR1 K59R F108L (Arabidopsis thaliana, UniProt O49686, F108L/K59R); assay: Y2H Pocket Library Screen (HAB1, X-gal)
# T17 construct: expressed in transfected cells; host or cells: S. cerevisiae Y190 yeast two-hybrid reporter strain
# Description: as §1
# PYR1 K59R V164K = target: T18, PYR1 K59R V164K (Arabidopsis thaliana, UniProt O49686, K59R/V164K); assay: Y2H Pocket Library Screen (HAB1, X-gal)
# T18 construct: expressed in transfected cells; host or cells: S. cerevisiae Y190
# Description: as §1
# PYR1 K59R V83L = target: T19, PYR1 K59R V83L (Arabidopsis thaliana, UniProt O49686, K59R/V83L); assay: Y2H Pocket Library Screen (HAB1, X-gal)
# T19 construct: expressed in transfected cells; host or cells: S. cerevisiae Y190 yeast two-hybrid reporter strain
# Description: as §1
# PYR1 K59R Y120F = target: T20, PYR1 K59R Y120F (Arabidopsis thaliana, UniProt O49686, K59R/Y120F); assay: Y2H Pocket Library Screen (HAB1, X-gal)
# T20 construct: expressed in transfected cells; host or cells: S. cerevisiae Y190 two-hybrid reporter strain
# Description: as §1
# PYR1 K59R T162W = target: T21, PYR1 K59R T162W (Arabidopsis thaliana, UniProt O49686, K59R/T162W); assay: Y2H Pocket Library Screen (HAB1, X-gal)
# T21 construct: expressed in transfected cells; host or cells: S. cerevisiae Y190
# Description: as §1
# PYR1 K59R M158C = target: T22, PYR1 K59R M158C (Arabidopsis thaliana, UniProt O49686, K59R/M158C); assay: Y2H Pocket Library Screen (HAB1, X-gal)
# T22 construct: expressed in transfected cells; host or cells: S. cerevisiae Y190 two-hybrid reporter strain
# Description: as §1
# PYR1 K59R Y120M = target: T23, PYR1 K59R Y120M (Arabidopsis thaliana, UniProt O49686, K59R/Y120M); assay: Y2H Pocket Library Screen (HAB1, X-gal)
# T23 construct: expressed in transfected cells; host or cells: S. cerevisiae Y190 two-hybrid reporter strain
# Description: as §1
# PYR1 K59R L87P = target: T24, PYR1 K59R L87P (Arabidopsis thaliana, UniProt O49686, K59R/L87P); assay: Y2H Pocket Library Screen (HAB1, X-gal)
# T24 construct: expressed in transfected cells; host or cells: S. cerevisiae Y190 yeast two-hybrid reporter strain
# Description: as §1
# PYR1 K59R M158I = target: T25, PYR1 K59R M158I (Arabidopsis thaliana, UniProt O49686, K59R/M158I); assay: Y2H Pocket Library Screen (HAB1, X-gal)
# T25 construct: expressed in transfected cells; host or cells: S. cerevisiae Y190 two-hybrid reporter strain
# Description: as §1
# PYR1 K59R E94S = target: T26, PYR1 K59R E94S (Arabidopsis thaliana, UniProt O49686, E94S/K59R); assay: Y2H Pocket Library Screen (HAB1, X-gal)
# T26 construct: expressed in transfected cells; host or cells: S. cerevisiae Y190 yeast two-hybrid reporter strain
# Description: as §1
# PYR1 K59R M158T = target: T27, PYR1 K59R M158T (Arabidopsis thaliana, UniProt O49686, K59R/M158T); assay: Y2H Pocket Library Screen (HAB1, X-gal)
# T27 construct: expressed in transfected cells; host or cells: S. cerevisiae Y190 two-hybrid reporter strain
# Description: as §1
# PYR1 K59R Y120G = target: T28, PYR1 K59R Y120G (Arabidopsis thaliana, UniProt O49686, K59R/Y120G); assay: Y2H Pocket Library Screen (HAB1, X-gal)
# T28 construct: expressed in transfected cells; host or cells: S. cerevisiae Y190 two-hybrid reporter strain
# Description: as §1
# PYR1 K59R Y120A E141Y = target: T29, PYR1 K59R Y120A E141Y (Arabidopsis thaliana, UniProt O49686, E141Y/K59R/Y120A); assay: Y2H Combinatorial Mutagenesis Screen I (HAB1, X-gal)
# T29 construct: expressed in transfected cells; host or cells: S. cerevisiae Y190 two-hybrid reporter strain
# Text: (§2) This screening approach yielded mutants at ligand contacting residues that alter sensitivity to specific ligands. We reasoned that receptor sensitivity could be improved by systematically constructing combinations of the best mutant variants identified in the first round of screening. To test this, we constructed mutant combinations using the strongest mutations identified for mandipropamid, benzothiadiazole, benoxacor or fludioxonil sensitivity. The mutations selected for combinatorial mutagenesis are listed in bold type in Table 1; The mutant combinations were constructed using the QuickChange Lightning Multi Site-Directed PCR Mutagenesis kit (Agilent, USA) using pBD-PYR1^K59R template DNA and mutagenic primers, essentially as previously described (Mosquna et al., 2011). The mutant combinations were sequence validated, introduced into the pACT-HAB1 Y190 reporter strain and then tested for responsiveness to a range of compound concentrations (100, 50, 25, 10, 1, 0.2, 0.1 or 0 μM each test compound). These efforts yielded double mutant receptor variants with improved sensitivity for the 4 compound/receptor pairs examined (see entries labeled “Combinatorial Mutagenesis Screen I” in Table 1).
# PYR1 K59R E94A N167C = target: T30, PYR1 K59R E94A N167C (Arabidopsis thaliana, UniProt O49686, E94A/K59R/N167C); assay: as above
# T30 construct: expressed in transfected cells; host or cells: S. cerevisiae Y190 two-hybrid reporter strain
# T30 sequence (O49686 whole entry K59R/E94A/N167C): as the sequence (O49686 whole entry K59R/N167H) above, with E94A, H167C counted along it
# T30 sequence (Q9CAJ0 23-511 partner): as the sequence (Q9CAJ0 23-511 partner) above
# Text: as §2
# PYR1 K59R Y120A N167C = target: T31, PYR1 K59R Y120A N167C (Arabidopsis thaliana, UniProt O49686, K59R/N167C/Y120A); assay: as above
# T31 construct: expressed in transfected cells; host or cells: S. cerevisiae Y190 two-hybrid reporter strain
# Text: as §2
# PYR1 K59R E94A Y120A = target: T32, PYR1 K59R E94A Y120A (Arabidopsis thaliana, UniProt O49686, E94A/K59R/Y120A); assay: as above
# T32 construct: expressed in transfected cells; host or cells: S. cerevisiae Y190 two-hybrid reporter strain
# Text: as §2
# T1 sequence (O49686 whole entry K59R/N167C): as the sequence (O49686 whole entry K59R/N167H) above, with H167C counted along it
# T1 sequence (Q9CAJ0 23-511 partner): as the sequence (Q9CAJ0 23-511 partner) above
structure (smiles),measurement,setting,value
"N#Cc1c[nH]cc1-c1cccc2c1OC(F)(F)O2 [Fludioxonil, fludioxonil]",Threshold,PYR1 K59R N167C,100 µM
same,Threshold,PYR1 K59R N167V,100 µM
same,Threshold,PYR1 K59R N167H,100 µM
same,Threshold,PYR1 K59R E94D,100 µM
same,Threshold,PYR1 K59R E94A,1 µM
same,Threshold,PYR1 K59R V81Y,100 µM
same,Threshold,PYR1 K59R Y120A,100 µM
same,Threshold,PYR1 K59R F159V,100 µM
same,Threshold,PYR1 K59R E141Y,100 µM
same,Threshold,PYR1 K59R S92F,100 µM
same,Threshold,PYR1 K59R V81I,100 µM
same,Threshold,PYR1 K59R A160C,100 µM
same,Threshold,PYR1 K59R L87F,100 µM
same,Threshold,PYR1 K59R F159T,100 µM
same,Threshold,PYR1 K59R M158V,100 µM
same,Threshold,PYR1 K59R F159A,100 µM
same,Threshold,PYR1 K59R F108L,100 µM
same,Threshold,PYR1 K59R V164K,100 µM
same,Threshold,PYR1 K59R V83L,100 µM
same,Threshold,PYR1 K59R Y120F,100 µM
same,Threshold,PYR1 K59R T162W,100 µM
same,Threshold,PYR1 K59R M158C,100 µM
same,Threshold,PYR1 K59R Y120M,100 µM
same,Threshold,PYR1 K59R L87P,100 µM
same,Threshold,PYR1 K59R M158I,100 µM
same,Threshold,PYR1 K59R E94S,100 µM
same,Threshold,PYR1 K59R M158T,100 µM
same,Threshold,PYR1 K59R Y120G,100 µM
same,Threshold,PYR1 K59R Y120A E141Y,10 µM
same,Threshold,PYR1 K59R E94A N167C,10 µM
same,Threshold,PYR1 K59R Y120A N167C,10 µM
same,Threshold,PYR1 K59R E94A Y120A,10 µM
